Key:
[1] = tested on: sandwich-cultured human hepatocytes; test: Effect of ERAs on endogenous glycocholic acid (GCA) distribution in sandwich-cultured human hepatocytes; format: cell-based; details: 24 h, mean ± standard error, n=3 human livers
Protocol: (§1) Sandwich-cultured human hepatocytes were obtained from Celsis/IVT (Baltimore, MD) or Life Technologies (Durham, NC). Donors were male (n = 3) and female (n = 1) between the ages of 31 and 62 years old. Hepatic uptake, biliary excretion and in vitro biliary clearance (Clb) were determined using the B-CLEAR® hepatocyte sandwich culture model as described by Liu et al., 1999 [34]. In this system, hepatocytes form functional bile canalicular networks while maintaining the expression and function of key uptake and efflux transporters. The canalicular system of bile pockets remains separate from the cellular culture media due to tight junctions between cells. The integrity of these tight junctions is maintained in the presence of calcium (Plus (+) buffer) while in the absence of calcium (Minus (−) buffer), these tight junctions open and release the contents of the canalicular network into the media.
(§2) Incubation solutions containing ERA (1, 10 and 100 µM) were prepared in cell culture medium. On the sixth day of culturing of the sandwich-cultured hepatocytes, cell culture medium was removed from the wells and incubation solutions containing the test ERAs were added to the cells. The cells were incubated with ERA solution for 24 h at 37°C. After the exposure, the incubation solutions were removed and the cells were rinsed with Plus (+) or Minus (−) buffer. The buffer solutions were then removed and the cells were incubated with fresh Plus (+) or Minus (−) buffer for 5 min at 37°C. Following this 5 minute incubation, the buffer solutions were collected and any remaining buffers were removed. The cells were then washed three times with ice-cold Plus (+) buffer and the plates were frozen at −80°C until processed for bioanalysis.
(§3) Study samples were stored in their original 24-well plates at −80°C until prepared for analysis. A volume of 500 µL of cell lysis solution (70∶30 methanol:water) containing 25 nM internal standard was added to each well and mixed for 20 min of mixing. The volume in each well was then transferred to a 96-well filter plate stacked on a Greiner deep well collection plate. The filter plate/collection plate was then centrifuged at 2000 rcf for 5 min. The filtrate was then evaporated to dryness under nitrogen. Samples were reconstituted in 200 µL of sample diluent (60∶40 methanol:10 mM ammonium acetate, native pH), sealed, and placed on a plate shaker for 15 min. These samples were then transferred to a Whatman 96-well 0.45 µm PVDF filter plate stacked on a Costar 3956 plate (HPLC injection plate), centrifuged at 2000 rcf for 2–3 min, and sealed with a silicon cap mat prior to LC-MS/MS analysis. d8-TCA standard spiking solutions were prepared in 50∶50 methanol:water. For a given lysate standard or control, 10 µL was added to each well of a previously frozen analytical plate. Standards representing 0.5–100 pmoles/well and QC’s at the LLQ and ULQ were prepared. These lysate standards and controls were then further processed as described above for unknown study samples. Prepared samples were filtered and analyzed by LC-MS/MS using a Shimadzu binary HPLC system (Columbia, MD) and tandem mass spectrometry using Thermo Electron TSQ® Quantum Discovery MAX™ (Waltham, MA) with an Ion Max ESI source operating in negative ion electrospray ionization mode. Results for unknowns and QCs were calculated using a standard curve based on an internal standard processing method.
Statistical comparisons across ERA treatments were performed using analysis of variance (ANOVA) with Fisher’s PLSD post hoc analysis (Statview 5.0, SAS Institute, Cary NC); statistical significance was considered to be P<0.05. All mass values were normalized to mg protein by taking the average protein mass in the taurocholate plate determined using a BCA protein assay (Pierce Biotechnology, Rockford, IL). […]

NTCP = tested on: NTCP; design: method as in PMID 20628435; details: concentrations tested 2, 20, and 100 µM, Hartman et al. ref 29; cited from earlier work
[2] = tested on: sandwich-cultured human hepatocytes; test: Hepatic disposition (intracellular accumulation) of ERAs in sandwich-cultured human hepatocytes; format: in vitro ADME; details: sandwich-cultured human hepatocytes, 1, 10 and 100 µM, 10 min; n = 3 donors
Protocol: as §1
Incubation solutions containing ERA (1, 10 and 100 µM) were prepared in Plus (+) buffer. Cell culture medium was removed from the wells and the cells were washed twice with Plus (+) or Minus (−) buffer. The wash solutions were then removed and replaced with fresh Plus (+) or Minus (−) buffer. The cells were conditioned for 10 min at 37°C. After the 10 min exposure, the buffer solutions were removed and replaced with the incubation solutions and incubated for 10 min at 37°C. Following 10 min incubation, the incubation solutions were removed and the cells were then washed three times with ice-cold Plus (+) Buffer. The plates were frozen at −80°C until processed for bioanalysis.
Study samples were stored in their original 24-well plates at −80°C until prepared for analysis. A volume of 500 µL of cell lysis solution (70∶30 methanol:water) containing 25 nM internal standard was added to each well and mixed for 20 min of mixing. […] Prepared samples were filtered and analyzed by LC-MS/MS using a Shimadzu binary HPLC system (Columbia, MD) and tandem mass spectrometry using Thermo Electron TSQ® Quantum Discovery MAX™ (Waltham, MA) with an Ion Max ESI source operating in negative ion electrospray ionization mode. Results for unknowns and QCs were calculated using a standard curve based on an internal standard processing method.
Data calculations were performed using Microsoft Excel, 2010 with all values reported as mean ± standard deviation (SD). […] All mass values were normalized to mg protein by taking the average protein mass in the taurocholate plate determined using a BCA protein assay (Pierce Biotechnology, Rockford, IL). Cellular accumulation determined in Minus (−) buffer (Accumulation Minus (−) Buffer) represents the total mass of analyte inside the hepatocyte at the end of the incubation time period. […]

[3] = tested on: sandwich-cultured human hepatocytes; test: Effect of ERAs on endogenous glycochenodeoxycholic acid (GCDCA) distribution in sandwich-cultured human hepatocytes; format: cell-based; details: 24 h, mean ± standard error, n=3 human livers
Protocol: as §1, with “Donors were male (n = 3) and female (n = 1) between the ages of 31 and 62 years old.” left out
as §2, §3
Statistical comparisons across ERA treatments were performed using analysis of variance (ANOVA) with Fisher’s PLSD post hoc analysis (Statview 5.0, SAS Institute, Cary NC); statistical significance was considered to be P<0.05. All mass values were normalized to mg protein by taking the average protein mass in the taurocholate plate determined using a BCA protein assay (Pierce Biotechnology, Rockford, IL). Cellular accumulation determined in Minus (−) buffer (Accumulation Minus (−) Buffer) represents the total mass of analyte inside the hepatocyte at the end of the incubation time period. […]

With `Cc1cc2c(cc1CC(=O)c1sccc1S(=O)(=O)Nc1onc(C)c1Cl)OCO2` [sitaxsentan] the “GCA BEI (% Control)” value ([1]; 1 µM) was 100.0 ± 18.3 % Control, the “GCA Cellular Accumulation (% Control)” value ([1]; 1 µM) was 90.9 ± 6.5 % Control and the “GCA Medium Concentration (% Control)” value ([1]; 1 µM) was 104.0 ± 8.1 % Control. The “GCA Total Accumulation (% Control)” value ([1]; 1 µM) was 98.6 ± 16.1 % Control, the “GCA BEI (% Control)” value ([1]; 10 µM) was 84.2 ± 6.0 % Control and the “GCA Cellular Accumulation (% Control)” value ([1]; 10 µM) was 69.8 ± 11.1 % Control. The “GCA Medium Concentration (% Control)” value ([1]; 10 µM) was 92.8 ± 3.8 % Control, the “GCA Total Accumulation (% Control)” value ([1]; 10 µM) was 60.3 ± 7.2 % Control and the “GCA BEI (% Control)” value ([1]; 100 µM) was 61.7 ± 12.2 % Control. The “GCA Cellular Accumulation (% Control)” value ([1]; 100 µM) was 18.6 ± 6.9 % Control, the “GCA Medium Concentration (% Control)” value ([1]; 100 µM) was 75.0 ± 3.5 % Control and the “GCA Total Accumulation (% Control)” value ([1]; 100 µM) was 14.4 ± 5.4 % Control. The “inhibition of NTCP” value (NTCP) was “inhibited”, the “hepatocyte accumulation relative to the extracellular test concentration” value [2] was roughly 40 x and the “GCDCA BEI (% Control)” value ([3]; 1 µM) was 112.0 ± 19.8 % Control. For the same compound, the “GCDCA Cellular Accumulation (% Control)” value ([3]; 1 µM) was 89.8 ± 10.8 % Control, the “GCDCA Medium Concentration (% Control)” value ([3]; 1 µM) was 110.0 ± 9.2 % Control and the “GCDCA Total Accumulation (% Control)” value ([3]; 1 µM) was 99.3 ± 11.0 % Control. The “GCDCA BEI (% Control)” value ([3]; 10 µM) was 85.7 ± 8.4 % Control, the “GCDCA Cellular Accumulation (% Control)” value ([3]; 10 µM) was 79.4 ± 12.4 % Control and the “GCDCA Medium Concentration (% Control)” value ([3]; 10 µM) was 105.0 ± 11.9 % Control. For the same compound, the “GCDCA Total Accumulation (% Control)” value ([3]; 10 µM) was 73.8 ± 10.5 % Control, the “GCDCA BEI (% Control)” value ([3]; 100 µM) was 55.5 ± 34.3 % Control and the “GCDCA Cellular Accumulation (% Control)” value ([3]; 100 µM) was 14.5 ± 2.7 % Control. The “GCDCA Medium Concentration (% Control)” value ([3]; 100 µM) was 76.5 ± 8.3 % Control and the “GCDCA Total Accumulation (% Control)” value ([3]; 100 µM) was 12.4 ± 3.0 % Control.
